Legend:
rat hippocampus [1] = experiment: BDNF, VEGF and IGF-1 level in vivo (ELISA); details: 21-day treatment, i.p. 40 mg/kg, vs vehicle-treated group
Method: (§1) The detailed procedures were performed according to the reported literatures.
SD rats were killed by decapitation and hippocampi were dissected out and stored at −80 °C until use. Tissue samples were homogenized at 4 °C in Promega lysis buffer for ELISA. Samples were then sonicated and lysates were cleared by centrifugation at 4 °C, 15 000 g. Protein concentrations were determined according to the Bradford assay using bovine serum albumin as standard. Quantifications of VEGF and IGF-1 proteins were measured with Quantikine M mouse VEGF and IGF-1enzyme immunoassay kits and BDNF protein with a mouse ELISA kit.

[2] = PAMPA-BBB permeation assay; assay type: in vitro ADME; details: for Papp at 18 h, 100 μg/mL: Pe ± SD (n = 3), pH 7.4
Method: Parallel artificial membrane permeation assay (PAMPA) was performed according to the literature[44] with minor modification. The PVDF (Poly(vinylidene fluoride)) membrane of the donor plate was coated with PBL (Polar Brain Lipid, Avanti, USA) in dodecane (4 μL of 20 mg/mL PBL in dodecane) and the acceptor well was filled with 350 μL of PBS/EtOH (70/30, v/v, pH 7.4) buffer (VD). The tested compound was dissolved in DMSO and then diluted with PBS/EtOH (70/30, v/v, pH 7.4) buffer to reach the concentration of 100 μg/mL in the donor well.
200 μL of the donor solution was added to the donor wells (VA) and the donor filter plate was carefully put on the acceptor plate so that the coated membrane contacted both donor solution and acceptor buffer. Test compound diffused from the donor well through the lipid membrane (area = 0.28 cm^2) to the acceptor well. The concentration of the drug in both donor and the acceptor wells was assessed after 18 hours of incubation at room temperature in triplicate using Varioskan Flash Multimode Reader (Thermo Scientific) at the maximum absorption wavelength of tested compound. Concentration of the compound was calculated from the standard curve and expressed as the permeability (Pe) according to Equation (2):

H9C2 cells = experiment: Cytotoxicity on H9C2 cells (MTT); assay type: cell-based; details: Rattus norvegicus, 48 h
Method: Human normal hepatic L02 cells, human embryonic kidney cell line 293 cells (HEK293) and Rattus myoblast cell line H9C2 cells were respectively seeded in 96-well plates at a density of 4 × 10^3 cells per well and cultured in the 1640 or DMEM medium, with the supplement of 10% fetal bovine serum, penicillin (100 unit/ml), streptomycin (100 μg/ml) in a humidified incubator with 5% CO2 for 24 h. After adherence, L02, HEK293 and H9C2 cells were exposed to different compounds for another 48 h. The cytotoxicities of the compounds were evaluated by MTT method.

[3] = test system: corticosterone-injured PC12 cells; experiment: Protective effects on corticosterone-injured PC12 cells (MTT); assay type: cell-based, rat; details: 24 h after treatment; for PR (protection rate): 200 μM corticosterone
Method in brief: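 PC12 cells seeded at 1 × 10^5 per well and grown 24 h in DMEM with 5% horse serum and 10% FBS, then incubated with compounds. Viability by MTT (2–4 h, 37 °C), formazan dissolved in DMSO, absorbance at 570 nm; protective rate calculated from absorbance.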

[4] = test system: corticosterone injured PC12 cells; experiment: Real-time PCR BDNF mRNA level; assay type: cell-based, rat; details: 200 µM corticosterone and 5 µM drug
[5] = test system: corticosterone injured PC12 cells; experiment: Intracellular ROS level (DCF-DA); assay type: cell-based, rat; details: 200 μM corticosterone and 5 μM drug; vehicle-treated PC12 cells = 100%
Method: In brief, PC12 cells were washed with D-Hanks after drug treatment. Then cells were incubated with 2′, 7′-dichloro-fluorescein diacetate (DCF-DA, 20 μM) for 30 min at 37 °C in darkness.

[6] = test system: corticosterone-injured PC12 cells; experiment: Intracellular calcium ion concentration analysis (Fura-2 AM); assay type: cell-based, rat; details: 200 µM corticosterone and 5 µM drug
Method: The detailed procedures were performed according to the reported literatures. In brief, calcium ion concentration was measured by Fura-2 AM (Thermo Scientific). PC12 cells were treated with compound 6a-1 for 48 hours. Then cells were detached with 0.25% trypsin and centrifuged at 1000 r/min for 5 minutes. The supernatant was removed and the cells were stained with Fura-2 AM according to the manufacturer’s instructions. Fluorescence intensity of labeled cells was photographed for 25 random sights each group using Thermo Scientific Array Scan Infinity.

C57 mice = experiment: Acute toxicity evaluation with H&E histology; assay type: in vivo, mouse
Method: Ten mice of each group were sacrificed on the 7th day, their heart, liver, spleen, lung and kidney were harvested and H&E histological staining was performed. Then the stained tissues were observed by two pathologists in a blinded manner.

[7] = test system: corticosterone injured PC12 cells; experiment: Intracellular GSH level; assay type: cell-based, rat; details: 200 μM corticosterone and 5 μM drug; vehicle-treated PC12 cells = 100%
Method: The GSH level was measured by reference of literatures’ methods[55][56] with appropriate revision. […] After being incubated on ice for 10 min, the lysate was centrifuged at 10 000 rpm for 10 min. […] The mixture was centrifuged at 3000 × g for 10 min at 4 °C, and then 200 μL of the resulting supernatant was mixed with 1 mL of phosphate buffer (100 mM, pH 8.0) and 50 μL of 5, 5-dithiobis-2-nitrobenzoic acid (DTNB).

SD rats = experiment: Forced swim test; assay type: in vivo, rat; details: ig. 32 mg/kg/day, days 2–15
Method: The detailed procedures were performed according to our previous studies. Briefly, each SD rat was placed in a vertical Plexiglas cylinder (height 50 cm; diameter 20 cm) containing 18 cm height of water at 25 ± 2 °C and was forced to swim individually for 15 min on1st day. From 2nd day to 15th day, the rats were intragastrically administered compound 6a-1 or control drugs at dosage of 32 mg/kg/day. On the 2nd day and 15th day, 30 minutes after drug treatment, each rat was placed again into water and forced to swim for 6 min. The rat behavior was recorded by a video camera placed directly facing cylinders. The duration of immobility during the last 4 minutes was analyzed by Xeye Animal behavior analysis system (Xeye Aba V3.2). The rat was considered as immobile when its moving speed was less than 20 mm/s. The dosage of is 32 mg/kg every day. The water in the cylinder was changed each trial. After each exposure, animals were partially dried with a towel and returned to their home cages. All tests were performed in a quiet room.

HEK293 cells = experiment: Cytotoxicity on HEK293 cells (MTT); assay type: cell-based, human; details: Homo sapiens, HEK293, 100μM, after treatment; read-out: IR (inhibitory rate) HEK293
Method in brief: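 HEK293 human embryonic kidney cells were plated in 96-well plates at 4 × 10^3 cells per well and grown in 1640 or DMEM medium containing 10% fetal bovine serum, penicillin (100 unit/ml) and streptomycin (100 μg/ml) for 24 h at 5% CO2 in a humidified incubator. Compound cytotoxicity was then determined using the MTT method.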

rat hippocampus [8] = experiment: Cell survival, proliferation and maturation in the rat hippocampus; assay type: in vivo; details: rats, 21 days
Method: as §1
Wistar rats were used herein. Agomelatine were purchased from Dalian Meilun Biotech Company. […] For cell proliferation study, BrdU (200 mg/kg i.p.) was administered 2 h before perfusion. For cell maturation and survival studies, animals received five injections of BrdU (75 mg/kg, 2 h intervals) the first day of treatment and were killed 21 days later. […] was randomly selected 8 visual fields for statistical analysis.

| Structure (SMILES) | hippocampal IGF-1 level (rat hippocampus [1]) | hippocampal VEGF level (rat hippocampus [1]) | CNS(+/−) prediction of blood-brain barrier penetration [2] | Papp at 18 h, 100 μg/mL [2] [×10⁻⁶ cm/s] | IC50 (H9C2 cells) [µM] | PR (protection rate) ([3]; 5 μM) [%] | PR (protection rate) ([3]; […]) [%] | BDNF mRNA level increase compared with corticosterone-injured group [4] [%] | ROS level [5] [%] | fluorescence intensity of free intracellular calcium ion [6] | heart histology (H&E) (C57 mice; 140 mg/kg/day, 7th day) | liver histology (H&E) (C57 mice; 140 mg/kg/day, 7th day) | spleen histology (H&E) (C57 mice; 140 mg/kg/day, 7th day) | GSH level [7] [%] | mean immobility time reduced compared to the model group (SD rats) [%] | inhibition at 100 µM (HEK293 cells) [%] | expression of PSA-NCAM compared with vehicle-treated group (rat hippocampus [8]; i.p. 40 mg/kg) | further results |
| --- | --- | --- | --- | --- | --- | --- | --- | --- | --- | --- | --- | --- | --- | --- | --- | --- | --- | --- |
| COc1ccc2c(c1)C(CCNC(C)=O)=NCC2.O=C(O)C(=O)O [6a-1, N-(2-(7-Methoxy-3,4-dihydroisoquinolin-1-yl)ethyl) acetamide oxalate] | neither compound 6a-1 nor Agomelatine exerted any influence | neither compound 6a-1 nor Agomelatine exerted any influence | CNS+ | 16.7 ± 0.41 | 455 | 42.1 | 37.1 | 42.8 | 140.3 | much weaker fluorescence intensity than Fluoxetine and Agomelatine | cardiac myocytes were fragmented and arranged promiscuously | hepatic cords were distinctly clear | unchanged | 87.7 | 62.5 | < 20 | reduced the expression of PSA-NCAM | kidney histology (H&E) (C57 mice; 140 mg/kg/day, 7th day): did not show any significant difference compared with normal; lung histology (H&E) (C57 mice; 140 mg/kg/day, 7th day): did not show any significant difference compared with normal; clinical signs of toxicity (C57 mice; intragastric 140 mg/kg/day, 7-day administration): No visible clinical signs of toxicity; number of BrdU-labeled neuron cells (proliferation) (rat hippocampus [8]; i.p. 40 mg/kg once daily): remarkably increased; number of BrdU-labeled neuron cells (survival) (rat hippocampus [8]; i.p. 40 mg/kg once daily): remarkably increased; number of NeuN cells compared with vehicle-treated group (rat hippocampus [8]; i.p. 40 mg/kg): significant (P < 0.001) increase; number of PSA-NCAM-labeled cells relative to Agomelatine group (rat hippocampus [8]; i.p. 40 mg/kg): approximately three-fold decrease |
| COc1ccc2cccc(CCNC(C)=O)c2c1 [Agomelatine, reference compound] | neither compound 6a-1 nor Agomelatine exerted any influence | neither compound 6a-1 nor Agomelatine exerted any influence | CNS+ | 17.8 ± 0.37 | 375 | 17.6 | 24.2 | 37.2 | 125.0 | weaker fluorescence intensity than corticosterone-injured PC12 cells | no necrosis, hemorrhage or inflammatory exudates were observed | severely damaged | unchanged | 93.4 | 8.4 | 47.5 | reduced the expression of PSA-NCAM | PR (protection rate), Table S1 ([3]; 1.25µM): 28.1%; PR (protection rate) ([3]; 1.25 μM): 28.1% |

— PMC5048153 (Scientific Reports, 2016)
